Key:
CL2122 worms [1] = test: Transcript analysis of the MSR in CL2122 control worms; assay type: in vivo, C. elegans; settings: CL2122, day 1 of adulthood; dox 15 μg/mL, NR 1 mM, AZD 0.3 μM
Experimental: C. elegans: A total of ˜3000 worms per condition, divided in 3 biological replicates, was recovered in M9 buffer from NGM plates and lysed in the TriPure RNA reagent. Each experiment was repeated twice. Total RNA was transcribed to cDNA using QuantiTect Reverse Transcription Kit (Qiagen). Expression of selected genes was analyzed using the LightCycler480 system (Roche) and LightCycler® 480 SYBR Green I Master reagent (Roche). For C. elegans, 2 housekeeping genes were used to normalize the expression data, namely actin (act-1) and peroxisomal membrane protein 3 (pmp-3).
atfs-1p::atfs-1 expression vector was created by amplifying 1488 bp sequence upstream from the transcription start site of atfs-1 coding region by using worm genomic DNA for the promoter region. […] The correctness of the atfs-1p::atfs-1 construct was assessed by sequencing with the indicated pPD30.38 and atfs-1 seq. primers. Two independent GMC101 lines (AUW9 and AUW10), and one CL2122 strain (AUW11) carrying atfs-1p::atfs-1 transgene as extrachromosomal array were analyzed in the study. […] The deriving F1 worms were shifted from 20° C. to 25° C. at the L4 stage to induce amyloid accumulation and paralysis, and phenotypes assessed over time as indicated. […]

CL2122 worms [2] = test: Mobility of CL2122 control worms; assay type: in vivo, C. elegans; settings: CL2122, day 1 to 4 and day 8 of adulthood; NR 1 mM, AZD 0.3 μM
Experimental: Doxycycline was obtained from Sigma-Aldrich and dissolved in water. For experiments, a final concentration of 15 μg/mL was used. Olaparib (AZD2281) was dissolved in DMSO to experimental concentrations of 300 nM. Nicotinamide Riboside triflate (NR) was custom synthesized by Novalix (www.novalix-pharma.com/) and dissolved in water, and used at a final concentration of 1 mM. Compounds were added just before pouring the plates. For phenotyping experiments, parental F0 L4 worms were allowed to reach adulthood and lay eggs on the treatment plates. The deriving F1 worms were therefore exposed to compounds during the full life from eggs until death. For RNA analysis experiments, synchronized L1 worms were exposed to the compounds until harvest. To ensure a permanent exposure to the compound, plates were changed twice a week.
Mobility: C. elegans movement analysis was performed as described, starting from day 1 of adulthood, using the Movement Tracker software. The experiments were repeated at least twice.

Structure (SMILES) | MSR transcripts in control strain (CL2122 worms [1]) | fitness (mobility) of control strain (CL2122 worms [2])
NC(=O)c1ccc[n+]([C@@H]2O[C@H](CO)[C@@H](O)[C@H]2O)c1 [NR, Nicotinamide Riboside triflate] | induction of the MSR was also consistently observed | only improved CL2122 fitness during aging
O=C(c1cc(Cc2n[nH]c(=O)c3ccccc23)ccc1F)N1CCN(C(=O)C2CC2)CC1 [AZD, Olaparib, reference compound] | induction of the MSR was also consistently observed | only improved CL2122 fitness during aging
